Active and inactive are the calls of the source. The rule behind the calls is not given here.
Experiments:
[1] = target: T1, Serine/threonine-protein kinase AKT (Homo sapiens) (UniProt P31751+Q9Y243+P31749); assay: Inhibition of Akt phosphorylation at Ser473 residue in human Mahlavu cells at 5 uM measured after 72 hrs by Western blot analysis; format: cell-based
SNU-475 [2] = assay: Induction of apoptosis in human SNU-475 cells assessed as nuclear fragmentation measured after 48 hrs by Hoechst33258 staining based inverted fluorescent microscopic method; format: functional, cell-based
[3] = target: T2, Mitogen-activated protein kinase; ERK1/ERK2 (Homo sapiens) (UniProt P27361+P28482); assay: Inhibition of ERK1/2 phosphorylation at T202/Y204 residue in human Mahlavu cells at 5 uM measured after 72 hrs by Western blot analysis; format: cell-based
T2 sequence (P27361 whole entry, looked up): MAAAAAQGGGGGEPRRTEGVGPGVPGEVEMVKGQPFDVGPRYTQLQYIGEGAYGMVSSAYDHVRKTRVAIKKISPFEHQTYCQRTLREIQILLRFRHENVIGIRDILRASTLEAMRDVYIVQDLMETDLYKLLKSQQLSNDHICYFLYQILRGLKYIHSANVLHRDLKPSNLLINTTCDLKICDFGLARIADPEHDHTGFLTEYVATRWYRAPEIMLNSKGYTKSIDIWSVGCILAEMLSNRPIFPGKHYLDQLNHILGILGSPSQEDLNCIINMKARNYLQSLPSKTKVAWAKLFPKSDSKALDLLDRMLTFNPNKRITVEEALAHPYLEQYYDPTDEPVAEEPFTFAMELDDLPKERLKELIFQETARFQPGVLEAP
T2 sequence (P28482 whole entry, looked up): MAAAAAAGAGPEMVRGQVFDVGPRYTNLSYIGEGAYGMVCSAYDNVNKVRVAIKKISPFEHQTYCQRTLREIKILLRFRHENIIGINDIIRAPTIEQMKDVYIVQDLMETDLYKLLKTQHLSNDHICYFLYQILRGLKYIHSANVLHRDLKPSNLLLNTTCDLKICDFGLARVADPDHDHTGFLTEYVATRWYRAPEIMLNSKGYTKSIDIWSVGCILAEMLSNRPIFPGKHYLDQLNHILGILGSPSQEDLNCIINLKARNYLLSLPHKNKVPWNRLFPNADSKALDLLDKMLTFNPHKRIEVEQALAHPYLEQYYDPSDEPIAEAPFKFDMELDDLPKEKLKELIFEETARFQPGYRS

Huh-7 [4] = assay: Antiproliferative activity against human Huh-7 cells assessed as reduction in cell viability measured after 40 to 150 hrs by RT-CES analysis; format: functional, cell-based; conditions: time 40-150 hrs
SNU-475 [5] = assay: Activation of p53 harboring A239G/T275C/A288G mutant in human SNU-475 cells assessed as upregulation of p53 phosphorylation at Ser15 residue at 5 uM incubated for 72 hrs by western blot analysis; format: cell-based; conditions: filed as activator
[6] = target: Cellular tumor antigen p53 (Homo sapiens) (UniProt P04637); assay: Activation of p53 in human HepG2 cells at 5 uM measured after 72 hrs by Western blot analysis; format: cell-based
Sequence of Cellular tumor antigen p53 (Homo sapiens) (P04637 whole entry, looked up): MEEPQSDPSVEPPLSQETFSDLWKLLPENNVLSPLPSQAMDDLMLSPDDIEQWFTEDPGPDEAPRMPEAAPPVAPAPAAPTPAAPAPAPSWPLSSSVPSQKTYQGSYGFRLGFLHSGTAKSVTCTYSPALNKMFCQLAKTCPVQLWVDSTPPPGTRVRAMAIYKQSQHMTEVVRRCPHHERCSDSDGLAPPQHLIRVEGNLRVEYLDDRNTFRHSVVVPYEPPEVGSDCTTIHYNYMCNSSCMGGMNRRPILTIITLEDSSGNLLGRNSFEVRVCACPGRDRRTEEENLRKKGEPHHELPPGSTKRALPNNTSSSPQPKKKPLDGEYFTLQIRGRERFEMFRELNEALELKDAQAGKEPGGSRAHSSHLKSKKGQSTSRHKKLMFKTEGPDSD

Huh-7 [7] = assay: Antiproliferative activity against human Huh-7 cells assessed as reduction in cell viability measured for 180 hrs by RT-CES analysis; format: functional, cell-based; conditions: dose 2.5-10 µM
Huh-7 [8] = assay: Inhibition of cell stemness in human Huh-7 cells assessed as reduction in size of tumor spheres at 10 uM incubated for 72 hrs followed by incubation in sphere formation medium for 14 days by microscopic analysis; format: functional, cell-based; conditions: time 17.0 day
Huh-7 [9] = assay: Inhibition of cell stemness in human Huh-7 cells assessed as decrease in OCT4 level at 10 uM measured after 72 hrs by flow cytometry analysis; format: functional, cell-based
Huh-7 [10] = assay: Activation of p53 harboring C220T mutant in human Huh-7 cells at 5 uM measured after 72 hrs by Western blot analysis; format: cell-based
SNU-475 [11] = assay: Induction of apoptosis in human SNU-475 cells assessed as chromatin condensation measured after 48 hrs by Hoechst33258 staining based inverted fluorescent microscopic method; format: functional, cell-based
Huh-7 [12] = assay: Inhibition of cell stemness in human Huh-7 cells assessed as reduction in tumor spheres count at 10 uM incubated for 72 hrs followed by incubation in sphere formation medium for 14 days by microscopic analysis; format: functional, cell-based; conditions: time 17.0 day
[13] = target: T2, Mitogen-activated protein kinase; ERK1/ERK2 (Homo sapiens); assay: Downregulation of ERK1/2 phosphorylation at T202/Y204 residue in human SNU-475 cells at 5 uM measured after 72 hrs by Western blot analysis; format: cell-based
[14] = target: T2, Mitogen-activated protein kinase; ERK1/ERK2 (Homo sapiens); assay: Downregulation of ERK1/2 phosphorylation at T202/Y204 residue in human HepG2 cells at 5 uM measured after 72 hrs by Western blot analysis; format: cell-based
Huh-7 [15] = assay: Antiproliferative activity against human Huh-7 cells assessed as reduction in cell viability measured after 72 hrs by SRB assay; format: functional, cell-based; conditions: Huh-7, 72 h
[16] = target: T1, Serine/threonine-protein kinase AKT (Homo sapiens); assay: Inhibition of Akt phosphorylation at Ser473 residue in human SNU-475 cells at 5 uM measured after 72 hrs by Western blot analysis; format: cell-based
SNU-475 [17] = assay: Antiproliferative activity against human SNU-475 cells assessed as reduction in cell viability measured for 180 hrs by RT-CES analysis; format: functional, cell-based; conditions: dose 2.5-10 µM
SNU-475 [18] = assay: Activation of p53 harboring A239G/T275C/A288G mutant in human SNU-475 cells assessed as upregulation of p53 acetylation at Lys382 residue at 5 uM incubated for 72 hrs by western blot analysis; format: cell-based; conditions: filed as activator
Mahlavu [19] = assay: Inhibition of cell stemness in human Mahlavu cells assessed as decrease in NANOG mRNA level at 10 uM measured after 72 hrs by RT-qPCR analysis; format: functional, cell-based
SNU-475 [20] = assay: Induction of apoptosis in human SNU-475 cells assessed as apoptotic body formation measured after 48 hrs by Hoechst33258 staining based inverted fluorescent microscopic method; format: functional, cell-based
Mahlavu [21] = assay: Inhibition of cell stemness in human Mahlavu cells assessed as decrease in OCT4 level at 10 uM measured after 72 hrs by flow cytometry analysis; format: functional, cell-based
Huh-7 [22] = assay: Induction of apoptosis in human Huh-7 cells at 5 uM measured after 72 hrs by Annexin V-FITC/propidium iodide staining based flow cytometric analysis; format: functional, cell-based
Mahlavu [23] = assay: Induction of apoptosis in human Mahlavu cells assessed as nuclear fragmentation measured after 48 hrs by Hoechst33258 staining based inverted fluorescent microscopic method; format: functional, cell-based
Mahlavu [24] = assay: Activation of p53 harboring G249T mutant in human Mahlavu cells assessed as upregulation of p53 phosphorylation at Ser15 residue at 5 uM incubated for 72 hrs by western blot analysis; format: cell-based; conditions: filed as activator

T1 sequence (P31749 whole entry, looked up, the tested form may be a part): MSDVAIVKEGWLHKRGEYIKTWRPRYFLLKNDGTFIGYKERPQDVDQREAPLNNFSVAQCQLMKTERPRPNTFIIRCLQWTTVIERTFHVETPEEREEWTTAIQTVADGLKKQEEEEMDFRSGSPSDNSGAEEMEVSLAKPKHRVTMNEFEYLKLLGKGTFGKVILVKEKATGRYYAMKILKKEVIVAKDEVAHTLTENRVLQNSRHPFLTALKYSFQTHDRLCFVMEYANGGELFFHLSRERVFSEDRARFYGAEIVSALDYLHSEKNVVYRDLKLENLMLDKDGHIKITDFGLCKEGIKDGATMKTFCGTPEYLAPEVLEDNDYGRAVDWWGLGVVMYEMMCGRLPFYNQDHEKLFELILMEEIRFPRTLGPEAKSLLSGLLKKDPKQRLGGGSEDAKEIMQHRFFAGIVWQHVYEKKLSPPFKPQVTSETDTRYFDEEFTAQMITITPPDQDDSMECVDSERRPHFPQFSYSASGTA
T1 sequence (P31751 whole entry, looked up, the tested form may be a part): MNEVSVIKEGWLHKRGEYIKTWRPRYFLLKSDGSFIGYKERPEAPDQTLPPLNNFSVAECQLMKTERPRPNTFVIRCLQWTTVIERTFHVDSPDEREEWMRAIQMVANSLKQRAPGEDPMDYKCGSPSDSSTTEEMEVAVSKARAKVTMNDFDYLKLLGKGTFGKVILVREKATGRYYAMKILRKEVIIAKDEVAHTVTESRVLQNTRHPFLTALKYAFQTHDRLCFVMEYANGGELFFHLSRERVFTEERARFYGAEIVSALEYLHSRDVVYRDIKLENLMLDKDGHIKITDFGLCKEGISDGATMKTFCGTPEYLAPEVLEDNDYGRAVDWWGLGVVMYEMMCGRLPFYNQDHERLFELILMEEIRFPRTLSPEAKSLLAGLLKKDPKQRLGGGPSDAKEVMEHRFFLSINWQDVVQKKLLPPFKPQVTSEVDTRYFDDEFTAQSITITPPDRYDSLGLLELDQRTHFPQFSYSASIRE
T1 sequence (Q9Y243 whole entry, looked up, the tested form may be a part): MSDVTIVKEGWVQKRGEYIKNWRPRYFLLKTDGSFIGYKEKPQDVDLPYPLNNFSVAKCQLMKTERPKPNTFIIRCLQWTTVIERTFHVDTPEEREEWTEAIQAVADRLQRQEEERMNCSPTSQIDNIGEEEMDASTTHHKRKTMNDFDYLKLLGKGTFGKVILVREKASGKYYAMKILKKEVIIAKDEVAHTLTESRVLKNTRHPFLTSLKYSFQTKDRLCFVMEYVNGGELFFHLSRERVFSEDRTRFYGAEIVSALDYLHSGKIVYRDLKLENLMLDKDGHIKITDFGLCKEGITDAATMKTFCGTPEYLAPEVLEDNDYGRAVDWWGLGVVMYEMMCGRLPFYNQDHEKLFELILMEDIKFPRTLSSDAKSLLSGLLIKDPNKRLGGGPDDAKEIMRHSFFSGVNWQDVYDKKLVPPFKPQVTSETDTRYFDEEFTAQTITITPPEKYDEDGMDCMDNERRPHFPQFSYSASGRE

inhibition [1]	inhibition [3]	Activity [6]	inhibition [13]	inhibition [14]	IC50 (Huh-7 [15]) [nM]	SMILES	Activity (SNU-475 [2])	Activity (Huh-7 [4])	Activity (SNU-475 [5])	Activity (Huh-7 [7])	inhibition (Huh-7 [8])	inhibition (Huh-7 [9])	Activity (Huh-7 [10])	Activity (SNU-475 [11])	inhibition (Huh-7 [12])	Activity (SNU-475 [17])	Activity (SNU-475 [20])	inhibition (Mahlavu [21])	Activity (Huh-7 [22])	Activity (Mahlavu [23])	also measured
Active	Active	inactive	Active	Active	90	N#Cc1cccc(COc2ccc(-c3cc(CN4CCN(Cc5ccc(C(F)(F)F)cc5)CC4)no3)cc2F)c1	Active	Active	Active	Dose-Dependent Effect	Active	inactive	inactive	Active	Active	Dose-Dependent Effect	Active	Active	Active	Active	inhibition [16]: Active; Activity (SNU-475 [18]): Active; inhibition (Mahlavu [19]): Active
Active	Active	inactive	Active	Active	1700	FC(F)(F)c1ccc(CN2CCN(Cc3cc(-c4ccc(OCc5ccccc5)cc4)on3)CC2)cc1	Active	Active	Active	Dose-Dependent Effect	Active	inactive	inactive	Active	Active	Dose-Dependent Effect	Active	Active	Active	Active	Activity (Mahlavu [24]): Active

Reference: ChEMBL document CHEMBL4837206, “Synthesis and biological evaluation of novel isoxazole-piperazine hybrids as potential anti-cancer agents with inhibitory effect on liver cancer stem cells” (Eur J Med Chem, 2021)
